Data published in US10500195B2, “Antibacterial compounds” (WOCKHARDT LIMITED, priority 2017, dated 2019).
Converted amounts (≈) assume the structure as drawn.

Assays:
[1] = tested on: E. coli strain M50 (CMY, DHA); assay: Time-dependent bacterial kill study; format: cell-based; settings: initial count 7.18 log10 CFU/ml
Procedure: In these studies, the initial bacterial count (at 0 hours) was 7.18 log10 CFU/ml. In general, 1, 2 and 3 log bacterial kill over initial count corresponds to […] bactericidal effect. In a typical time-dependent bacterial kill studies, freshly grown bacterial cultures were diluted to target cell density (initial starting inoculum) in Cation adjusted Muller Hinton broth medium (BD, USA). The antibacterial agents (either alone or in combination) at the required concentrations were added into the culture-containing medium. The sample flasks were incubated under shaking condition (120 rpm) at 37° C. Enumeration of viable bacterial count was undertaken periodically by diluting the sample in normal saline and plating on to the Tryptic Soya Agar plates (BD, USA). The plates were incubated for 24 hours to estimate viable bacterial count. The results are expressed in terms of Log10 CFU per ml.

E. coli 13352 = assay: Antibacterial activity (MIC), agar dilution per CLSI; format: cell-based; settings: Escherichia coli
Procedure: (§1) The biological activity of representative compounds according to the invention against various bacterial strains was investigated. In a typical study, overnight grown bacterial cultures were diluted appropriately and inoculated on the agar media containing doubling dilutions of the test compounds. Observation for growth or no growth was performed after 16-20 hours of incubation at 35±2° C. in ambient air. The overall procedure was performed as per Clinical and Laboratory Standards Institute (CLSI) recommendations (Clinical and Laboratory Standards Institute (CLSI), Performance Standards for Antimicrobial Susceptibility Testing, 20th Informational Supplement, M 100-S20, Volume 30, No. 1, 2010).

E. coli M 36 = assay: as above; format: cell-based; settings: Escherichia coli, M36
Procedure: as §1

E. coli M 138 = assay: as above; format: cell-based; settings: Escherichia coli, M138
Procedure: as §1

K. pneumoniae H522 = assay: as above; format: cell-based; settings: Klebsiella pneumoniae
Procedure: as §1

E. coli 7MP = assay: as above; format: cell-based; settings: Escherichia coli
Procedure: as §1

E. coli M 49 = assay: as above; format: cell-based; settings: Escherichia coli, M49
Procedure: as §1

E. coli 13353 = assay: as above; format: cell-based; settings: Escherichia coli
Procedure: as §1

K. pneumoniae H521 = assay: as above; format: cell-based; settings: Klebsiella pneumoniae
Procedure: as §1

E. coli 13351 = assay: as above; format: cell-based; settings: Escherichia coli
Procedure: as §1

E. coli M 50 = assay: as above; format: cell-based; settings: Escherichia coli, M50
Procedure: as §1

K. pneumoniae H525 = assay: as above; format: cell-based; settings: Klebsiella pneumoniae
Procedure: as §1

K. pneumoniae H523 = assay: as above; format: cell-based; settings: Klebsiella pneumoniae
Procedure: as §1

[2] = tested on: K. pneumoniae ATCC 700603; assay: as above; format: cell-based; settings: Klebsiella pneumoniae, ATCC700603
Procedure: as §1

[3] = 2 hours, antibacterial agent alone 8 μg/ml
[4] = 4 hours, antibacterial agent alone 8 μg/ml
[5] = 6 hours, antibacterial agent alone 8 μg/ml
[6] = 8 hours, antibacterial agent alone 8 μg/ml

Row | melting point | MIC (E. coli 13352) | MIC (E. coli M 36) | MIC (E. coli M 138) | MIC (K. pneumoniae H522) | MIC (E. coli 7MP) | MIC (E. coli M 49) | MIC (E. coli 13353) | MIC (K. pneumoniae H521) | MIC (E. coli 13351) | MIC (E. coli M 50) | MIC (K. pneumoniae H525) | MIC (K. pneumoniae H523) | MIC [2] | SMILES | Bacterial count [1, 3] | Bacterial count [1, 4] | Bacterial count [1, 5] | Bacterial count [1, 6] | further results
1 | – | – | – | – | – | – | – | – | – | – | – | – | – | – | CO/N=C(\C(=O)N[C@@H]1C(=O)N2C(C(=O)[O-])=C(C[N+]3(C)CCCC3)CS[C@H]12)c1csc(N)n1 [Cefepime] | 7.85 Log10 CFU per ml | 8.65 Log10 CFU per ml | 8.90 Log10 CFU per ml | 9.0 Log10 CFU per ml | –
2 | – | – | – | – | – | – | – | – | – | – | – | – | – | – | C=CC1=C(C(=O)O)N2C(=O)[C@@H](NC(=O)/C(=N\OCC(=O)O)c3csc(N)n3)[C@H]2SC1 [Cefixime] | 7.85 Log10 CFU per ml | 8.90 Log10 CFU per ml | 8.78 Log10 CFU per ml | 9.04 Log10 CFU per ml | –
3 | – | – | – | – | – | – | – | – | – | – | – | – | – | – | COCC1=C(C(=O)O)N2C(=O)[C@@H](NC(=O)/C(=N\OC)c3csc(N)n3)[C@H]2SC1 [Cefpodoxime] | 7.95 Log10 CFU per ml | 8.70 Log10 CFU per ml | 8.95 Log10 CFU per ml | 9.30 Log10 CFU per ml | –
4 | – | – | – | – | – | – | – | – | – | – | – | – | – | – | CC(C)(O/N=C(\C(=O)N[C@@H]1C(=O)N2C(C(=O)[O-])=C(C[n+]3ccccc3)CS[C@H]12)c1csc(N)n1)C(=O)O [Ceftazidime] | 7.81 Log10 CFU per ml | 8.90 Log10 CFU per ml | 9.0 Log10 CFU per ml | 8.92 Log10 CFU per ml | –
5 | – | – | – | – | – | – | – | – | – | – | – | – | – | – | Nc1nc(/C(=C/CC(=O)O)C(=O)N[C@@H]2C(=O)N3C(C(=O)O)=CCS[C@H]23)cs1 [Ceftibuten] | 7.98 Log10 CFU per ml | 8.30 Log10 CFU per ml | 8.74 Log10 CFU per ml | 9.48 Log10 CFU per ml | –
6 | 180 to 183 °C (dec.) | 1 µg/mL (≈ 2.62 µM) | 0.25 µg/mL (≈ 0.654 µM) | 0.5 µg/mL (≈ 1.31 µM) | 1 µg/mL (≈ 2.62 µM) | 1 µg/mL (≈ 2.62 µM) | 4 µg/mL (≈ 10.5 µM) | 0.5 µg/mL (≈ 1.31 µM) | 1 µg/mL (≈ 2.62 µM) | 0.5 µg/mL (≈ 1.31 µM) | 0.5 µg/mL (≈ 1.31 µM) | 0.5 µg/mL (≈ 1.31 µM) | 1 µg/mL (≈ 2.62 µM) | > 32 µg/mL | O=C(NOC[C@@H]1C[C@H](F)CN1)[C@@H]1CC[C@@H]2CN1C(=O)N2OS(=O)(=O)O [Example 1, (2S, 5R)-N-{[(2S, 4S)-4-fluoropyrrolidin-2-yl]methyloxy}-7-oxo-6-(sulfooxy)-1,6-diazabicyclo[3.2.1]octane-2-carboxamide] | – | – | – | – | Bacterial count ([1]; 2 hours, Compound of Formula (Ia) alone 4 μg/ml): 7.78 Log10 CFU per ml; Bacterial count ([1]; 4 hours, Compound of Formula (Ia) alone 4 μg/ml): 6.74 Log10 CFU per ml; Bacterial count ([1]; 6 hours, Compound of Formula (Ia) alone 4 μg/ml): 5.85 Log10 CFU per ml; Bacterial count ([1]; 8 hours, Compound of Formula (Ia) alone 4 μg/ml): 6.13 Log10 CFU per ml
7 | 160 to 163 °C (dec.) | 2 µg/mL (≈ 5.23 µM) | 1 µg/mL (≈ 2.62 µM) | 2 µg/mL (≈ 5.23 µM) | 4 µg/mL (≈ 10.5 µM) | 2 µg/mL (≈ 5.23 µM) | 4 µg/mL (≈ 10.5 µM) | 1 µg/mL (≈ 2.62 µM) | 4 µg/mL (≈ 10.5 µM) | 1 µg/mL (≈ 2.62 µM) | 2 µg/mL (≈ 5.23 µM) | 4 µg/mL (≈ 10.5 µM) | 4 µg/mL (≈ 10.5 µM) | > 32 µg/mL | O=C(NOC[C@@H]1C[C@@H](F)CN1)[C@@H]1CC[C@@H]2CN1C(=O)N2OS(=O)(=O)O [Example 2, (2S, 5R)-N-{[(2S, 4R)-4-fluoropyrrolidin-2-yl]methyloxy}-7-oxo-6-(sulfooxy)-1,6-diazabicyclo[3.2.1]octane-2-carboxamide] | – | – | – | – | –
8 | 175 to 178 °C (dec.) | 2 µg/mL (≈ 5.23 µM) | 1 µg/mL (≈ 2.62 µM) | 1 µg/mL (≈ 2.62 µM) | 2 µg/mL (≈ 5.23 µM) | 2 µg/mL (≈ 5.23 µM) | 4 µg/mL (≈ 10.5 µM) | 1 µg/mL (≈ 2.62 µM) | 2 µg/mL (≈ 5.23 µM) | 1 µg/mL (≈ 2.62 µM) | 1 µg/mL (≈ 2.62 µM) | 2 µg/mL (≈ 5.23 µM) | 2 µg/mL (≈ 5.23 µM) | > 32 µg/mL | O=C(NOC[C@H]1C[C@H](F)CN1)[C@@H]1CC[C@@H]2CN1C(=O)N2OS(=O)(=O)O [Example 3, (2S, 5R)-N-{[(2R, 4S)-4-fluoropyrrolidin-2-yl]methyloxy}-7-oxo-6-(sulfooxy)-1,6-diazabicyclo[3.2.1]octane-2-carboxamide] | – | – | – | – | –
9 | 207 to 209 °C (dec.) | 4 µg/mL (≈ 10.5 µM) | 1 µg/mL (≈ 2.62 µM) | 2 µg/mL (≈ 5.23 µM) | 4 µg/mL (≈ 10.5 µM) | 4 µg/mL (≈ 10.5 µM) | 4 µg/mL (≈ 10.5 µM) | 1 µg/mL (≈ 2.62 µM) | 4 µg/mL (≈ 10.5 µM) | 2 µg/mL (≈ 5.23 µM) | 2 µg/mL (≈ 5.23 µM) | 2 µg/mL (≈ 5.23 µM) | 4 µg/mL (≈ 10.5 µM) | > 32 µg/mL | O=C(NOC[C@H]1C[C@@H](F)CN1)[C@@H]1CC[C@@H]2CN1C(=O)N2OS(=O)(=O)O [Example 4, (2S, 5R)-N-{[(2R, 4R)-4-fluoropyrrolidin-2-yl]methyloxy}-7-oxo-6-(sulfooxy)-1,6-diazabicyclo[3.2.1]octane-2-carboxamide] | – | – | – | – | –
